Laboratory results as given in paper PMC5365645, “Preclinical Pharmacokinetics and Pharmacodynamic Target of SCY-078, a First-in-Class Orally Active Antifungal Glucan Synthesis Inhibitor, in Murine Models of Disseminated Candidiasis” (Antimicrobial Agents and Chemotherapy, 2017).
Converted amounts (≈) assume the structure as drawn. “And” between values parts separate entries of the source, which are not always exact repeats. Identical values can stand only once. Like-named read-outs stand apart in the source and are kept apart here.

Legend:
[1] = In vitro metabolic stability in hepatic microsomes; format: in vitro ADME, mouse; details: for remaining at 0.5 h, 1 µM: read-out: % remaining after 30 min; for half-life at 1 μM / microsomal CLint at 1 μM: pooled liver microsomes
Protocol: (§1) The metabolic stability of SCY-078 was assessed after incubation with mouse, rat, dog, and human liver microsomes (Table 2) ([10]). […] The half-lives in rodent, dog, and human liver microsomes were ≥125, ≥29, and ≥42 min, respectively.
(§2) The metabolic stability of SCY-078 was evaluated with male and female mouse, male rat, male and female dog, and mixed-gender human liver microsomes (XenoTech, Lenexa, KS). SCY-078 (1 μM) was incubated with pooled liver microsomes (0.5 mg protein/ml) for 0, 5, 10, 20, and 30 min at 37°C in the presence of NADPH. Aliquots were taken at each sampling time point and extracted with 5 volumes of ice-cold acetonitrile containing the internal standard (d9-SCY-078, 125 ng/ml). Supernatants from the incubation mixtures were analyzed for the parent compound by LC-MS/MS according to the conditions described below. The metabolic competency of microsomal preparations was established using the control compounds 7-ethoxycoumarin, propranolol, and verapamil. The in vitro intrinsic clearance (CLint), the CLint scaled to the in vivo intrinsic clearance (CL′int), and the half-life were determined for SCY-078 incubated with microsomes from each species.

[2] = In vitro metabolic stability in hepatic microsomes; format: in vitro ADME; details: for remaining at 0.5 h, 1 µM: read-out: % remaining after 30 min
Protocol: as §1, §2

[3] = system: C. glabrata isolate CG 5592; design: method as in PMID 25512406; details: cited from earlier work
[4] = Immediate treatment murine model of disseminated candidiasis; details: DBA/2N, mouse, plasma, po
[5] = system: C. albicans MY1055; experiment: as above
[6] = both sexes, human, pooled liver microsomes, human (mixed) liver microsomes
[7] = pooled liver microsomes, male rat liver microsomes
[8] = Study A, 6.25 mg/kg p.o. BID, day 7
[9] = Study A, 12.5 mg/kg p.o. BID, day 7
[10] = Study A, Efficacious: projected assuming linearity
[11] = Study B, 6.25 mg/kg p.o. BID, day 7
[12] = Study B, 12.5 mg/kg p.o. BID, day 7
[13] = Study B, Efficacious: projected assuming linearity
[14] = Study C, 6.25 mg/kg p.o. BID, day 7

Question: What does the source list for `CC(C)[C@@H](C)[C@@]1(C)CC[C@]2(C)[C@H]3CC[C@@H]4[C@@]5(COC[C@@]4(C)[C@@H](OC[C@](C)(N)C(C)(C)C)[C@H](n4ncnc4-c4ccncc4)C5)C3=CC[C@@]2(C)[C@@H]1C(=O)O` [SCY-078, (1S,4aR,6aS,7R,8R,10aR,10bR,12aR,14R,15R)-15-[[(2R)-2-amino-2,3,3-trimethylbutyl]oxy]-8-[(1R)-1,2-dimethylpropyl]-14-[5-(4-pyridinyl)-1H-1,2,4-triazol-1-yl]-1,6,6a,7,8,9,10,10a,10b,11,12,12a-dodecahydro-1,6a,8,10a-tetramethyl-4H-1,4a-propano-2H-phenanthro[1,2-c]pyran-7-carboxylic acid]?
Answer: remaining at 0.5 h, 1 µM ([1]; female mouse liver microsomes): 88%; remaining at 0.5 h, 1 µM ([1]; male mouse liver microsomes): 95%; half-life at 1 μM ([1]; female mouse liver microsomes): > 2.25 h; microsomal CLint at 1 μM ([1]; female mouse liver microsomes): < 10 µL/min/mg; half-life at 1 μM ([1]; male mouse liver microsomes): > 2.25 h; microsomal CLint at 1 μM ([1]; male mouse liver microsomes): < 10 µL/min/mg; half-life at 1 μM [2, 6]: ≥ 0.7 h; microsomal CLint at 1 μM [2, 6]: 34 µL/min/mg; remaining at 0.5 h, 1 µM ([2]; both sexes, pooled liver microsomes, human (mixed) liver microsomes): 61%; CLint ([2]; human (mixed) liver microsomes): 33 µL/min/mg; remaining at 0.5 h, 1 µM ([2]; male rat liver microsomes): 84%; half-life at 1 μM [2, 7]: 2.08 h; microsomal CLint at 1 μM [2, 7]: 11 µL/min/mg; MIC [3]: 0.25 µg/mL (≈ 0.342 µM); AUC(0-t) ([4]; 6.25 mg/kg, Plasma AUC0–24, Study A, 6.25 mg/kg p.o. BID, after dose 13 day 7): 6190 ng·h/mL and 8.48 µM·h; AUC(0-t) ([4]; 6.25 mg/kg, Plasma AUC0–24, Study B, 6.25 mg/kg p.o. BID, after dose 13 day 7): 3270 ng·h/mL and 4.48 µM·h; AUC(0-t) ([4]; 6.25 mg/kg, Plasma AUC0–24, Study C, 6.25 mg/kg p.o. BID, after dose 13 day 7): 11000 ng·h/mL and 15.1 µM·h; AUC(0-t) ([4]; 12.5 mg/kg, Plasma AUC0–24, Study A, 12.5 mg/kg p.o. BID, after dose 13 day 7): 19700 ng·h/mL and 27 µM·h; AUC(0-t) ([4]; 12.5 mg/kg, Plasma AUC0–24, Study B, 12.5 mg/kg p.o. BID, after dose 13 day 7): 16200 ng·h/mL and 22.2 µM·h; AUC(0-t) ([4]; Plasma AUC0–24, Study A, Efficacious: projected efficacious exposure assuming linearity): 12900 ng·h/mL and 17.7 µM·h; AUC(0-t) ([4]; Plasma AUC0–24, Study B, Efficacious: projected efficacious exposure assuming linearity): 9710 ng·h/mL and 13.3 µM·h; Kidney tissue burden [5, 8]: 2.78 log10 CFU/g of tissue; Reduction from sham treatment [5, 8]: 3.69 log10 CFU/g of tissue; % animals sterilized ([5]; Study A, 6.25 mg/kg p.o. BID, day 7, five animals per group): 40%; Kidney tissue burden [5, 9]: 2.23 log10 CFU/g of tissue; Reduction from sham treatment [5, 9]: 4.24 log10 CFU/g of tissue; % animals sterilized ([5]; Study A, 12.5 mg/kg p.o. BID, day 7, five animals per group): 80%; % animals sterilized [5, 10]: 60%; Kidney tissue burden [5, 10]: 2.51 log10 CFU/g of tissue; Reduction from sham treatment [5, 10]: 4 log10 CFU/g of tissue; Kidney tissue burden [5, 11]: 3.52 log10 CFU/g of tissue; Reduction from sham treatment [5, 11]: 3.35 log10 CFU/g of tissue; % animals sterilized ([5]; Study B, 6.25 mg/kg p.o. BID, day 7, five animals per group): 0%; Kidney tissue burden [5, 12]: 2.2 log10 CFU/g of tissue; Reduction from sham treatment [5, 12]: 4.67 log10 CFU/g of tissue; % animals sterilized ([5]; Study B, 12.5 mg/kg p.o. BID, day 7, five animals per group): 100%; % animals sterilized [5, 13]: 50%; Kidney tissue burden [5, 13]: 2.86 log10 CFU/g of tissue; Reduction from sham treatment [5, 13]: 4.01 log10 CFU/g of tissue; Kidney tissue burden [5, 14]: 2.61 log10 CFU/g of tissue; Reduction from sham treatment [5, 14]: 4.35 log10 CFU/g of tissue; % animals sterilized ([5]; Study C, 6.25 mg/kg p.o. BID, day 7, five animals per group): 60%; Free-drug (f) AUC0–24 ([5]; efficacy target, fraction bound 99.8% in mouse plasma): 0.0224 ± 0.0032 µg·h/mL; Mean therapeutic exposure (plasma AUC0–24) across all models ([5]; mean of immediate-treatment, delayed-single-dose and delayed-fractionated-dose models): 14.3 µM·h
